≈ marks a conversion by molar mass, not a printed value. Read-outs that look alike come from different tables or passages of the source.
Columns and labels:
[1] = Stability of ITZA/POSA in solvent vehicles (HPLC); format: physicochemical
Description: The ITZA in solvent H3 was incubated in sealed tubes. […] For both short-term and long-term stability studies, triplicate samples at various time points were analyzed quantitatively by HPLC after appropriate dilutions. In the next step the stability of ITZA (at approximately 4 mg/mL) in a preferred composite solvent at a clinically relevant stock concentration by itself, and after dilution with a similar volume of a clinically acceptable infusion fluid, was determined at room temperature. ITZA was dissolved at a final stock concentration of 2-6 mg/mL in benzyl alcohol with acidified EtOH/PEG-400 (prototype ITZA stock solvent vehicle) and incubated at RT and at 40° C. The resulting ITZA concentrations were measured by HPLC in samples taken immediately after solubilization, then hourly for 8 hours, and then at gradually increasing time intervals for up to several days (weeks), depending on the initial rate of solubilization/degradation in the respective solvent system.

[2] = Maximum solubility of ITZA and azole analogues in solvents (HPLC); format: physicochemical; conditions: for solubility thermodynamic at 1 h: within 1 hour at RT, read-out: Maximum equilibrium solubility
Description: ITZA and its analogues were dissolved in various solvents incubated at 37° C. for 30 minutes, cooled down to room temperature, centrifuged at 14,000 rpm for 1 min. The supernatant was analyzed using HPLC to determine the maximum solubility of ITZA and its azole analogues.
In a first step the maximum ITZA solubility in various single solvents was determined. To this end, ITZA and its analogs were dissolved in various solvents, incubated at 37° C. for 30 minutes, cooled down to room temperature, centrifuged at 14,000 rpm for 1 min. The supernatant was analyzed using HPLC to determine the maximum solubility of the respective agent.
The solubility of ITZA was determined in several individual vehicles. Briefly, a known amount of ITZA drug, formulated as a powder (Sigma Inc., St Louis, Mo.), was equilibrated in the respective solvent at RT over 1-4 hours. An aliquot was removed, filtered, and prepared for HPLC to determine maximum solubility at room temperature. Based on the ITZA solubility in each vehicle, different solvents were mixed according to the cosolvency principle in an attempt to arrive at an enhanced stable solubility. […] The stock formulation was then diluted with a final diluent, i.e. NS or D5W or DlOW, to yield a stable use-formulation. The desired range of the final use-formulation was between 1 and 5 mg/mL, as it would result in a final volume that could be safely and conveniently infused intravascularly.
An excess of ITZA as a powder was added to a multitude of chemical solvents (Table 1) at RT. Each mixture was intermittently vortexed, placed in a dark environment and checked visually for up to 4 hours for evidence of solubilization. Following centrifugation to remove solid particles, small samples were withdrawn after consecutive time intervals and the ITZA concentration was determined by HPLC as described.

[3] = mouse, in vivo, 5 mg/kg
Description: (§2) Swiss Webster mice were used for pharmacokinetic studies of ITZA and its analogs. The dilation of the vein was accomplished by warming up the mice using a heat lamp. […] Mice were allowed to recover and blood samples were obtained through cardiac puncture under general anesthesia with Isoflurane/oxygen by vaporizer at various time points. Plasma was obtained by centrifugation of blood sample at 3,200 rpm for 5 min. at 4° C. Plasma proteins were precipitated by adding acetonitrile (twice the volume of plasma). The mixture was vortexed for 30 seconds and centrifuged for 5 min. at 14,000 rpm. The supernatant was saved and was injected into the HPLC to determine the respective drug concentrations.
(§3) Unless specified, the analogous experiments were performed using POSA as an alternative to ITZA; Swiss Webster mice of both sexes with a body weight of 25-30 g were used for the in vivo pharmacology experiments (Harlan-Sprague-Dawley, Houston, Tex.). The animals were allowed a minimum of 7 days after arrival to accommodate to the new environment and allowed free access to commercial feed and tap water prior to and during the experimentation period. The animals were housed in an Association for the Assessment and Accreditation of Laboratory Animal Care International (AAALAC)-approved facility that meets the requirements of the USDA, NIH, and DHHS.
(§4) The ITZA dose of 5 mg/kg BW was determined to be a suitable test dose that could be administered to the mice as a slow (3-4 min) IV bolus injection without requiring sedation, but could be performed with only minimal physical restraint of the animals in a standard funnel-type cage.
(§5) The ITZA was formulated in the H3 solvent system described above as the preferred solvent to a stock concentration of 4-5 mg/mL and then diluted with NS (ratio 1:1) so the intended dose (5.0 mg/kg BW) could be injected in a tail vein in a total volume of approximately 100 μL. […] No sedative premedication was used for the mice in this experiment to avoid the possible induction of microsomal liver enzymes that could modify ITZA metabolism. Thus, the animals were unanesthetized, being only physically restrained during and immediately following the drug injection.
(§6) Blood samples (0.5-1.0 mL) were drawn through cardiac puncture into heparinized tubes at selected time points prior to the drug infusion (“blank”), and from 5 min to 1 hour after drug injection for determination of ITZA concentrations, and for 5 min to about 7 hrs in the POSA experiment. The mice were exposed to 2% -4% isoflurane for general anesthesia. Blood samples were obtained through cardiac puncture and immediately deposited in heparinized microcentrifuge tubes.

Candida parapsilosis = experiment: Yeast susceptibility test, MIC (CLSI standard); format: cell-based; conditions: tested range 38 μg/mL to 0.03 μg/mL, read out at 24 hours, average of three experiments
Description: (§1) Briefly, susceptibility tests were set-up using a standardized methodology (CLSI […] standard). Drugs were diluted into RPMI-Mops medium (Yeast One Broth (Sensititer, product Y3462, Trek Diagnostic Systems, Cleveland, Ohio) Sensititer Lot number 151416SA-expiration date 2011-01). Two different strains of yeast were tested, the standardized evaluation/read out was performed at 24 hours after the start of each culture. The tests were repeated twice and all MIC (minimum inhibitory concentration) values are reported as an average of the three experiments.

[4] = system: Candida cruzei (ATCC strain 6258); experiment: Yeast susceptibility test, MIC (CLSI standard); format: cell-based; conditions: tested range 38 μg/mL to 0.03 μg/mL, read out at 24 hours, average of three experiments
Description: as §1

[5] = system: Aspergillus fumigatus (ATCC strain 90906); experiment: Mold susceptibility test, MIC (CLSI M38A); format: cell-based
Description: Two hyaline molds were tested with a standard read out at 48 hrs:
Tested drug range: 75 μg/mL to 0.07 μg/mL
To further determine the antifungal activity of the compounds in the new formulation systems we investigated the efficacy of the various agents against additional strains of mucor and Aspergillus (9/-16-9/20/2010) (The Rhizomucor was a clinical isolate from a patient isolate) and the Aspergillus fumigatus (ATCC strain 90906) used was a repeat from the previously described experiment. Again, the susceptibility tests were set-up using the standardized test method (CLSI M38A). The used drugs were provided in the described H3 final use-formulation that has been previously described. All drugs were diluted in RPMI-Mops medium (YeastOne, Sensititer Lot 151416SA, expiration date January 2011).
As before two different molds were tested with a standard read out at 48 hr: • Drug dilution range 75 μg/mL to 0.07 μg/mL. • Aspergillus fumigatus (ATCC strain 90906) Zygomycete (Clinical Lab isolate, MDACC) […]

[6] = Plasma pharmacology after IV injection in mice; conditions: IV dose of 5 mg/kg
Description: as §2, §3, §4, §5, §6

CCC(C)n1ncn(-c2ccc(N3CCN(c4ccc(OCC5COC(Cn6cncn6)(c6ccc(Cl)cc6Cl)O5)cc4)CC3)cc2)c1=O (centres unmarked) [ITZA, itraconazole]
Stability (% remaining) ([1]; 2 mg/mL, normal saline as final dilution solution, at least 24 hours at RT): more than 90%
stability of ITZA ([1]; H3D/5% dex., day 3): 108%
stability of ITZA ([1]; H3D/sal., day 4): 102%
stability of ITZA ([1]; H3G/10% dex., day 1): 102%
Stability (%) ([1]; parent solvent H3, approximately 4 mg/mL, room temperature, 48 hrs): 96%
Stability (%) ([1]; parent solvent H3, approximately 4 mg/mL, room temperature, 7 days (1 w)): 91%
Stability (%) ([1]; parent solvent H3, approximately 4 mg/mL, room temperature, 9 days): 84%
Stability (%) ([1]; parent solvent H3, approximately 4 mg/mL, room temperature, 18 days): 80%
Stability (%) ([1]; solvent H3, approximately 4 mg/mL, 40° C., 72 hr): 76%
Stability (%) ([1]; solvent H3, approximately 4 mg/mL, 40° C., 10 days): 59%
Stability (%) ([1]; solvent H3, approximately 4 mg/mL, 40° C., 11 days): 58%
Stability (%) ([1]; solvent H3, approximately 4 mg/mL, 40° C., time 0): 100%
Stability (%) ([1]; solvent H3/normal saline (1:1), approximately 2.0 mg/mL, RT, 6 hrs): 101%
solubility ([2]; 2M citric acid, aqueous buffer, thermodynamic from solid, in 2M citric acid, read-out: Maximum solubility): 3220 µg/mL (≈ 4.56 mM)
solubility ([2]; 6N HCl, aqueous buffer, thermodynamic from solid, in 6N HCl, read-out: Maximum solubility): 7410 µg/mL (≈ 10.5 mM)
solubility ([2]; 25% acetic acid, aqueous with cosolvent or surfactant or cyclodextrin, thermodynamic from solid, in 25% Acetic acid, read-out: Maximum solubility): 300 µg/mL (≈ 0.425 mM)
solubility ([2]; 50% acetic acid, aqueous with cosolvent or surfactant or cyclodextrin, thermodynamic from solid, in 50% Acetic acid, read-out: Maximum solubility): 12900 µg/mL (≈ 18.3 mM)
solubility ([2]; Intralipid, oil or lipid, thermodynamic from solid, in Intralipid, read-out: Maximum solubility): 150 µg/mL (≈ 0.213 mM)
solubility ([2]; PEG 200, organic solvent or mixture, thermodynamic from solid, in PEG 200, read-out: Maximum solubility): 1450 µg/mL (≈ 2.05 mM)
solubility ([2]; PEG 300, organic solvent or mixture, thermodynamic from solid, in PEG 300, read-out: Maximum solubility): 1810 µg/mL (≈ 2.57 mM)
solubility ([2]; PEG 400, organic solvent or mixture, thermodynamic from solid, in PEG 400, read-out: Maximum solubility): 2510 µg/mL (≈ 3.56 mM)
solubility ([2]; acetic acid, organic solvent or mixture, thermodynamic from solid, in Acetic acid, read-out: Maximum solubility): 144000 µg/mL (≈ 205 mM)
solubility ([2]; benzyl alcohol, organic solvent or mixture, thermodynamic from solid, in Benzyl alcohol, read-out: Maximum solubility): > 128000 µg/mL
Solubility (in words) ([2]; diluted acetic acid, H2O, Normal saline, 5% Dextrose, Polyoxyethylated castor oil, Propylene glycol, 2 M citric acid, Ethanol, HCl, PEG400, Intralipid): insignificant solubility
solubility ([2]; ethanol, organic solvent or mixture, thermodynamic from solid, in Ethanol, read-out: Maximum solubility): 410 µg/mL (≈ 0.581 mM)
Maximum solubility ([2]; in 10% Acetic acid): 860 µg/mL
Maximum solubility ([2]; in Polyoxyethylated castor oil): 890 µg/mL
solubility ([2]; normal saline, saline or isotonic, thermodynamic from solid, in Normal saline, read-out: Maximum solubility): 480 µg/mL (≈ 0.68 mM)
solubility ([2]; organic solvent or mixture, thermodynamic from solid, benzyl alcohol containing solvent H3, room temp, read-out: Maximum solubility): ~31400 µg/mL (≈ 44.5 mM)
solubility thermodynamic at 1 h ([2]; organic solvent or mixture, thermodynamic from solid, Benzyl alcohol): > 100000 µg/mL
solubility thermodynamic at 1 h ([2]; organic solvent or mixture, thermodynamic from solid, pure (glacial) acetic acid): > 100000 µg/mL
solubility ([2]; propylene glycol, organic solvent or mixture, thermodynamic from solid, in Propylene glycol, read-out: Maximum solubility): 140 µg/mL (≈ 0.198 mM)
solubility ([2]; solvent B (with Tween 80), aqueous with cosolvent or surfactant or cyclodextrin, thermodynamic from solid, solvent B (with Tween 80), read-out: Maximum solubility): 29000 µg/mL (≈ 41.1 mM)
solubility at 30 min ([2]; solvent H3D (no benzyl alcohol), organic solvent or mixture, thermodynamic from solid, solvent H3D (no benzyl alcohol), single determination, read-out: Azole solubility, [Drug] mg/mL): 19.1 mg/mL (≈ 27.1 mM)
solubility at 30 min ([2]; solvent H3D (no benzyl alcohol), organic solvent or mixture, thermodynamic from solid, solvent H3D (no benzyl alcohol), read-out: Azole solubility, Average mg/mL): 19 mg/mL (≈ 26.9 mM)
Azole solubility, [Drug] mg/mL ([2]; solvent H3D (no benzyl alcohol), single determination): 18.9 mg/mL
solubility at 30 min ([2]; solvent H3G (no benzyl alcohol), organic solvent or mixture, thermodynamic from solid, solvent H3G (no benzyl alcohol), single determination, read-out: Azole solubility, [Drug] mg/mL): 19.2 mg/mL (≈ 27.2 mM)
solubility at 30 min ([2]; solvent H3G (no benzyl alcohol), organic solvent or mixture, thermodynamic from solid, solvent H3G (no benzyl alcohol), read-out: Azole solubility, Average mg/mL): 19.3 mg/mL (≈ 27.4 mM)
Azole solubility, [Drug] mg/mL ([2]; solvent H3G (no benzyl alcohol), single determination): 19.4 mg/mL
solubility ([2]; solvent J1, organic solvent or mixture, thermodynamic from solid, solvent J1, read-out: Solubility): 18100 µg/mL (≈ 25.7 mM)
solubility ([2]; solvent J2): 15990 µg/mL (≈ 22.7 mM)
solubility ([2]; solvent J3): 10110 µg/mL (≈ 14.3 mM)
solubility ([2]; solvent J4, organic solvent or mixture, thermodynamic from solid, solvent J4, read-out: Solubility): 6090 µg/mL (≈ 8.63 mM)
solubility ([2]; solvent J5, organic solvent or mixture, thermodynamic from solid, solvent J5, read-out: Solubility): 3540 µg/mL (≈ 5.02 mM)
solubility ([2]; solvent K, organic solvent or mixture, thermodynamic from solid, solvent K, RT, read-out: Maximum solubility): 11100 µg/mL (≈ 15.7 mM)
Maximum solubility ([2]; solvent L): 5000 µg/mL
tolerability of IV injection (in words) [3]: well accepted
MIC (Candida parapsilosis): 0.03 µg/mL (≈ 4.25e-05 mM)
MIC (Candida parapsilosis; listed as ITZA*): 0.07 µg/mL (≈ 9.92e-05 mM)
MIC [4]: 0.07 µg/mL (≈ 9.92e-05 mM)
MIC ([4]; listed as ITZA*): 0.15 µg/mL (≈ 0.000213 mM)
MIC ([5]; Aspergillus fumigatus, ATCC90906, 48 h, tested range 75 μg/mL to 0.07 μg/mL, read out at 48 hrs, first experiment, read-out: MIC): 1.2 µg/mL (≈ 0.0017 mM)
MIC ([5]; extended mold testing (repeat), H3 final use-formulation, range 75 μg/mL to 0.07 μg/mL, 48 hr): 1.2 µg/mL (≈ 0.0017 mM)
MIC ([5]; extended mold testing (repeat), H3 final use-formulation, range 75 μg/mL to 0.07 μg/mL, 48 hr, listed as ITZA*): 0.3 µg/mL (≈ 0.000425 mM)
MIC ([5]; tested range 75 μg/mL to 0.07 μg/mL, read out at 48 hrs, first experiment): 0.6 µg/mL (≈ 0.00085 mM)
time plasma concentrations remain in the fungi-toxic range [6]: in excess of one hour

Reference: patent US10307418B2, “Azole pharmaceutical formulations for parenteral administration and methods for preparing and using the same as treatment of diseases sensitive to azole compounds” (Platform Brightworks Two, Ltd., priority 2010, dated 2019)
